The values below come from BindingDB's records for doi:10.1016/j.bmcl.2021.128263 (A*Star, 2021).

pIC50, pKi: −log10 of the molar value.

The experiment has as its target Replicase polyprotein 1ab (Severe acute respiratory syndrome coronavirus, UniProt P0C6X7). Put plainly: Literature assay.

For the compound `CC(OC(C)(C)C)[C@H](NC(=O)OCc1ccccc1)C(=O)N[C@@H](CC1CCCCC1)C(=O)N[C@H](C=O)CC1CCNC1=O` (some centres undefined) [TG-0205221], the pKi (as a rule, the Ki on a negative log10 scale, so that one unit is a factor of ten) was 7.28.
Take `CC(C)C[C@H](NC(=O)[C@@H](NC(=O)OCc1ccccc1)C(C)C)C(=O)N[C@@H](C[C@@H]1CCNC1=O)C(=O)c1nc2ccccc2s1` [peptidomimetic coronavirus 3CLpro inhibitors 2i]: the pIC50 (usually −log10 of the IC50, conventionally taken in molar units) was 5.77.
In turn, `CC(C)C[C@H](NC(=O)[C@@H](NC(=O)OCc1ccccc1)C(C)C)C(=O)N[C@@H](C[C@@H]1CCNC1=O)C(=O)C(=O)N(C)C` [peptidomimetic coronavirus 3CLpro inhibitors 17] showed a pIC50 of 8.15.
On the same count and under the same terms, with `CC(C)C[C@H](NC(=O)OCc1ccccc1)C(=O)N[C@@H](C[C@@H]1CCNC1=O)C(=O)c1nc2ccccc2s1` [peptidomimetic coronavirus 3CLpro inhibitors 25c] the figure was 3.68.
